Test results as given in patent publication US20240400620A1, “Compositions Containing Coronavirus Proteins and Epitopes” (priority 2021, published 2024).
Like-named read-outs stand apart in the source and are kept apart here. No end group written: not given here.

Key:
[1] = system: activated CD8+ T cells from OC43-infected HLA-B*0702 Ifnar1^−/− mice; assay type: cell-based; conditions: splenocytes
[2] = system: splenocytes or lung leukocytes from DNA-vaccinated HLA-DRB1*0101 mice; assay type: cell-based; conditions: for stimulation of IFNγ production (ELISpot): splenocytes
[3] = system: activated CD4+ T cells from OC43-infected HLA-DRB1*0101 Ifnar1^−/− mice; assay type: cell-based; conditions: for expansion of peptide-reactive IFNγ+ CD4+ T cells: day 8 post-OC43 infection
[4] = system: splenocytes or lung leukocytes (IFNγ-producing peptide-specific T cells) from DNA-vaccinated HLA-B*0702 mice; experiment: IFNγ-ELISpot, cells of DNA-vaccinated HLA-B*0702 Ifnar1^−/− mice stimulated with SARS-CoV-2 peptides; assay type: cell-based; conditions: 20 h; for IFNγ production (ELISpot) compared with unstimulated control cells: splenocytes, day 21, 10 μg/mL peptide; for IFNγ secretion (ELISpot): lung leukocytes, 10 μg/mL peptide
[5] = system: activated (CD44+ CD62L−) CD8+ T cells from B.1.351-infected HLA-B*0702 Ifnar1^−/− mice; assay type: cell-based
SARS-CoV-2 B.1.351 = conditions: mouse, in vivo
[6] = spleen, day 16 post-OC43 infection

Which “frequencies of activated IFNγ+ and IFNγ/TNF+ CD8+ T cells” value ([1]; day 8 post-OC43 infection) does the source give for “LPKGIMMNV (misc_feature - ORF1ab; Severe acute respiratory syndrome-related coronavirus) [ORF1ab6834-6844]” here?
The value was “increase was significant”.

How did the “stimulation of IFNγ production (ELISpot)” value [2] turn out when “PKEITVATSRTLSYY (misc_feature - Membrane; Severe acute respiratory syndrome-related coronavirus) [M165-179]” was run?
Its value is “significant stimulation of IFNγ production”.

For GSLVVRCSFYEDFLE [ORF896-110], which “frequencies of cross-reactive IFNγ+ CD4+ T cells” value [3, 6] is on record?
The value was “significantly increased”.

With “YYRRATRRIRGGDGK (misc_feature - Nucleoprotein; Severe acute respiratory syndrome-related coronavirus) [N86-100]” as the sequence, how does the “IL-2 production by CD4+ T cells” value ([3]; day 16 post-OC43 infection) read?
The value was “stimulated IL-2 production”.

What about the “expansion of polyfunctional cross-reactive IFNγ+/TNF+ CD4+ T cells” value [3, 6] of the same sequence?
The value was “significantly expanded”.

How did the “IFNγ production (ELISpot) compared with unstimulated control cells” value [4] turn out when “VPVAIHADQL (misc_feature - Spike; Severe acute respiratory syndrome-related coronavirus) [S620-629]” was run?
The value was “significantly higher levels of IFNγ”.

TSNFRVQPTESIVRF [S315-329] was tested. Which “stimulation of IFNγ response (ELISpot)” value ([2]; lung leukocytes) did it give?
Its value is “significantly stimulated a response”.

And the “stimulation of IFNγ production (ELISpot)” value [2]?
The value was “significant stimulation of IFNγ production”.

And the “IFNγ response (ELISpot)” value ([2]; splenocytes and lung leukocytes)?
The value was “capable of stimulating both splenocytes and lung leukocytes”.

How did the “expansion of peptide-reactive IFNγ+ CD4+ T cells” value ([3]; spleen) turn out when “VLAAVYRINWITGGI (misc_feature - Membrane; Severe acute respiratory syndrome-related coronavirus) [M66-80]” was run?
Its value is “statistically significant”.

For “LKFPRGQGVPI (misc_feature - Nucleoprotein; Severe acute respiratory syndrome-related coronavirus) [N64-74]”, which “IFNγ secretion (ELISpot)” value [4] is on record?
Its value is “significant IFNγ secretion”.

And the “IFNγ production (ELISpot) compared with unstimulated control cells” value [4]?
The value was “significantly higher levels of IFNγ”.

For QSINFVRIIMRLWLC [ORF3a116-130], which “expansion of peptide-reactive IFNγ+ CD4+ T cells” value ([3]; spleen) is on record?
Its value is “statistically significant”.

Which results are given for “TNSPRRARSVA (misc_feature - Spike; Severe acute respiratory syndrome-related coronavirus) [S678-688]”?
IFNγ production (ELISpot) compared with unstimulated control cells [4]: significantly higher levels of IFNγ; frequencies of activated IFNγ+, IFNγ+/TNF+, IFNγ+/CD107a+ and IFNγ+/TNF+/IL-2+ CD8+ T cells compared with unstimulated cultures [5]: no significant expansion

Which “frequencies of cross-reactive IFNγ+ CD4+ T cells” value [3] does the source give for RCSFYEDFLEYHDVR [ORF8101-115] here?
Its value is “significantly increased”.

How did the “IFNγ production (ELISpot) compared with unstimulated control cells” value [4] turn out when “SPRWYFYYLG (misc_feature - Nucleoprotein; Severe acute respiratory syndrome-related coronavirus) [N105-114]” was run?
The value was “significantly higher levels of IFNγ”.

LNTLVKQLSSNFGAI [S959-973] was tested. Which “stimulation of IFNγ production (ELISpot)” value [2] did it give?
Its value is “significant stimulation of IFNγ production”.

What does the source list for APHGVVFL [S1056-1063]?
IFNγ secretion (ELISpot) [4]: significant IFNγ secretion; IFNγ production (ELISpot) compared with unstimulated control cells [4]: significantly higher levels of IFNγ; frequencies of activated IFNγ+, IFNγ+/TNF+, IFNγ+/CD107a+ and IFNγ+/TNF+/IL-2+ CD8+ T cells compared with unstimulated cultures [5]: no significant expansion

With “KFPRGQGVPI (misc_feature - Nucleoprotein; Severe acute respiratory syndrome-related coronavirus) [N65-74]” as the sequence, how does the “IFNγ secretion (ELISpot)” value [4] read?
The value was “significant IFNγ secretion”.

And the “IFNγ production (ELISpot) compared with unstimulated control cells” value [4]?
The value was “significantly higher levels of IFNγ”.

With “LPKEITVAT (misc_feature - Membrane; Severe acute respiratory syndrome-related coronavirus) [M164-172]” as the sequence, how does the “frequencies of activated IFNγ+, IFNγ+/TNF+, IFNγ+/CD107a+ and IFNγ+/TNF+/IL-2+ CD8+ T cells compared with unstimulated cultures” value [5] read?
The value was “no significant expansion”.

How did the “IFNγ production (ELISpot) compared with unstimulated control cells” value [4] turn out when “SPRRARSV (misc_feature - Spike; Severe acute respiratory syndrome-related coronavirus) [S680-687]” was run?
Its value is “significantly higher levels of IFNγ”.

For “SPRRARSVA (misc_feature - Spike; Severe acute respiratory syndrome-related coronavirus) [S680-688]”, which “IFNγ production (ELISpot) compared with unstimulated control cells” value [4] is on record?
Its value is “significantly higher levels of IFNγ”.

Which “IFNγ secretion (ELISpot)” value [4] does the source give for “FPRGQGVPINT (misc_feature - Nucleoprotein; Severe acute respiratory syndrome-related coronavirus) [N66-76]” here?
Its value is “significant IFNγ secretion”.

What about the “IFNγ production (ELISpot) compared with unstimulated control cells” value [4] of the same sequence?
The value was “significantly higher levels of IFNγ”.

What about the “frequencies of activated IFNγ+, IFNγ+/TNF+, IFNγ+/CD107a+ and IFNγ+/TNF+/IL-2+ CD8+ T cells compared with unstimulated cultures” value [5] of the same sequence?
Its value is “no significant expansion”.

LYLYALVYFLQSINF [ORF3a106-120] was tested. Which “IL-2 production by CD4+ T cells” value ([3]; day 16 post-OC43 infection) did it give?
The value was “stimulated IL-2 production”.

Which “frequencies of N104-113-reactive polyfunctional (IFNγ+/TNF+, IFNγ+/TNF+/IL-2+) and cytotoxic multifunctional (IFNγ+/CD107a+) CD8+ T cells vs mock-immunized” value (SARS-CoV-2 B.1.351) does the source give for LSPRWYFYYL [N104-113] here?
Its value is “significantly increased”.

“FARTRSMWSF (misc_feature - Membrane; Severe acute respiratory syndrome-related coronavirus) [M103-112]” was tested. Which “frequencies of activated IFNγ+, IFNγ+/TNF+, IFNγ+/CD107a+ and IFNγ+/TNF+/IL-2+ CD8+ T cells compared with unstimulated cultures” value [5] did it give?
The value was “no significant expansion”.

Which “expansion of peptide-reactive IFNγ+ CD8+ T cells” value ([1]; day 16 post-OC43 infection) does the source give for “LSPRWYFYYLGTGPEAGL (misc_feature - Nucleocapsid; Severe acute respiratory syndrome-related coronavirus) [N104-121]” here?
The value was 9 fold.

What about the “expansion of peptide-reactive IFNγ+/TNF+ CD8+ T cells” value ([1]; day 16 post-OC43 infection) of the same sequence?
Its value is 12 fold.

What does the source list for “FPRGQGVPIN (misc_feature - Nucleoprotein; Severe acute respiratory syndrome-related coronavirus) [N66-75]”?
IFNγ secretion (ELISpot) [4]: significant IFNγ secretion; IFNγ production (ELISpot) compared with unstimulated control cells [4]: significantly higher levels of IFNγ
